Test results: ChEMBL document CHEMBL4043119, “Synthesis and biological evaluation in vitro and in mammalian cells of new heteroaryl carboxyamides as HIV-protease inhibitors” (Bioorg Med Chem, 2017)
Calls of active or inactive are those of the source. The calls are words filed in the database; no cut-off is given here.

Tests used:
[1] = (§1) Cytotoxicity against HEK293 cells after 24 hrs by MTT assay; format: cell-based; conditions: human, HEK293 cells
HEK293 = assay: as §1; format: cell-based; conditions: human, hek293, 24 h
[2] = Inhibition of wild-type recombinant HIV-1 protease expressed in Escherichia coli using Abz-Thr-Ile-Nle-Phe(p-NO2)-Gln-Arg-NH2 as substrate by fluorescence assay; design: species or system Human immunodeficiency virus 1
[3] = system: Human immunodeficiency virus 1; assay: Inhibition of recombinant HIV-1 GFP-tagged protease expressed in HEK293 cells assessed as increase in GFP-tagged protease accumulation at 10 uM after 24 hrs by Western blot analysis; format: cell-based
[4] = system: Human immunodeficiency virus 1; assay: Inhibition of recombinant HIV-1 GFP-tagged protease expressed in HEK293 cells assessed as increase in GFP-tagged protease accumulation after 24 hrs by fluorescence microscopic analysis; format: cell-based
[5] = system: Human immunodeficiency virus 1; assay: Inhibition of recombinant HIV-1 GFP-tagged protease expressed in HEK293 cells assessed as increase in GFP-tagged protease accumulation at 10 to 30 uM after 24 hrs by flow cytometric analysis; format: cell-based
[6] = system: Human immunodeficiency virus 1; assay: Inhibition of recombinant HIV-1 GFP-tagged protease expressed in HEK293 cells assessed as increase in GFP-tagged protease accumulation at 10 uM after 24 hrs by flow cytometric analysis; format: cell-based

IC50 [2]	SMILES	CC50 at 24 h [1]	Activity (HEK293)	Inhibition (qualitative activity call) [3]	inhibition [4]	inhibition [5]	inhibition [6]
1.1 nM	COc1ccc(S(=O)(=O)N(CC(C)C)C[C@@H](O)[C@H](Cc2ccccc2)NC(=O)c2ccc3occc3c2)cc1OC	> 200000 nM	Dose-dependent effect	Active	Active	Active	
15 nM	COc1ccc(S(=O)(=O)N(CC(C)C)C[C@@H](O)CNC(=O)c2ccc3sccc3c2)cc1OC						
13 nM	COc1ccc(S(=O)(=O)N(CC(C)C)C[C@@H](O)[C@H](Cc2ccccc2)NC(=O)c2ccc3sccc3c2)cc1OC	> 200000 nM	Dose-dependent effect	Active	Active	Active	
2 nM	COc1ccc(S(=O)(=O)N(CC(C)C)C[C@@H](O)[C@H](Cc2ccccc2)NC(=O)c2ccc3[nH]ccc3c2)cc1OC	> 200000 nM	Dose-dependent effect	Active	Active	Active	

Further lines, the compound ahead of its results:

SMILES	IC50 [2]	CC50 at 24 h [1]	Activity (HEK293)	Inhibition (qualitative activity call) [3]	inhibition [4]	inhibition [5]	inhibition [6]
COc1ccc(S(=O)(=O)N(CC(C)C)C[C@@H](O)CNC(=O)c2ccc3occc3c2)cc1OC	1 nM						
COc1ccc(S(=O)(=O)N(CC(C)C)C[C@@H](O)CNC(=O)c2ccc3[nH]ccc3c2)cc1OC	4000 nM						
CC(C)CN(C[C@@H](O)[C@H](Cc1ccccc1)NC(=O)O[C@H]1CO[C@H]2OCC[C@H]21)S(=O)(=O)c1ccc(N)cc1				Active	Active		Active
